Bridge positions count the residues as written; N and C are the ends. Peptide text beside a SMILES is read from it. * marks the point of attachment. FITC = O=C1OC2(c3ccc(O)cc3Oc3cc(O)ccc32)c2ccc(NC(=S)*)cc21; GABA = NCCCC(=O)O
Experiments:
[1] = system: EGFR+ve cells (H1299, DKMG) versus K562 cells; assay: Flow cytometry internalization of peptide-FITC conjugates; type: cell-based; details: 2.5 μM FITC-labeled peptide
Description: Analysis was done with FACS cell analyzer.

HEK-293 cells = assay: Confocal microscopy, HEK-293; type: cell-based; details: 25 μM, after 3 hours
Procedure: (§1) H1299, DKMG and HEK-293 cells were seeded in 12-well glass bottom black plates in concentrations of 5.0×10^4, 1.0×10^5, and 2.5×10^4 cells/well, respectively. The cells were cultured in complete growth medium at 37° C. under 5% CO2 for 24 h. After incubation, the medium was removed, the cells were twice washed with PBS Ca^2+Mg^2+, and new fresh medium (0.5 ml) contained 25 μM of FITC labeled P6 or P9 peptides was added. The stained cells were incubated at 37° C. under 5% CO2 for 0 h and 3 h, washed twice with PBS, and stained with Hoechst 33258 ([…], 0.5 ml, 37° C., 5% CO2) for 10 min. The cells were twice washed with PBS and fixed with 4% paraformaldehyde (PFA). Fluorescence images were then recorded at the magnification of ×200 with a Zeiss LSM700 confocal laser microscope.
(§2) To get additional confirmation data on the specificity of the FITC labeled P6 and P9 peptides towards EGFR H1299 lung cancer and […] DKMG glioblastoma cell lines compared to EGFR−ve HEK-293 normal cells, the inventors employed confocal scanning microscopy. The cells were incubated with 25 μM FITC-labeled P6 and P9, the cell nuclear were stained with […], the cells were fixed with 4% paraformaldehyde, and captured immediately after addition and 3 h later. […] A clear correlation of the green FITC signal with the cell type was established.

H1299 cells = assay: Confocal microscopy, H1299; type: cell-based; details: 25 μM
Procedure: as §1, §2

DKMG cells = assay: Confocal microscopy, DKMG; type: cell-based; details: 25 μM; for green FITC signal: after 3 hours; for fluorescence intensity: time zero
Procedure: as §1, §2

[2] = system: high-EGFR-expressing MDA-435 cells; assay: Target specificity by flow cytometry, MDA-435; type: cell-based; details: FITC-labeled peptides
Procedure: (§3) Cells with 80-90% confluence were incubated with 2.5 μM FITC-conjugated peptides in RPMI-5% FBS for 1 h at 37° C. Cells were scrapped from the culture flask and washed twice with 2 ml FCSB. Cells were analyzed as previously described Internalization of peptide-FITC conjugates.
(§4) Cells were cultured overnight in 6-well plates under 80-90% confluence, the medium was replaced with 1 ml of the fresh medium with 5% FBS that contained 2.5 μM FITC-conjugated peptides. The plates were incubated for 1, 2, or 3 h at 37° C. After incubation, the cells were collected with trypsin, washed twice with FCSB, and resuspended in 200 μl of FCSB. Analysis was done with FACS cell analyzer.
(§5) Targeting specificity of FITC-labeled P4-P6, P8, and P9 peptides was investigated on three cell lines, which were not used in biopanning: kidney HEK-293 and breast MCF-10A normal cells, and breast cancer MDA-435 cells. To verify EGFR WT expression on these cell lines, the inventors stained the cells with APC-labeled monoclonal anti-human EGFR antibody followed by a flow cytometry analysis.
(§6) The interaction of the FITC labeled P4 P6, P8, and P9 with these cell lines was analyzed by flow cytometry.

MCF-10A cells = details: FITC-labeled peptides, flow cytometry
Procedure: as §3, §4, §5, §6

[3] = system: H1299, DKMG and K562 cells; assay: Flow cytometry binding of peptide-FITC conjugates; type: cell-based; details: 2.5 μM FITC-labeled peptide
Description: This concentration was chosen based on preliminary dose dependence study.

[4] = system: DKMG cells line expressing both EGFR+ve and EGFRvIII mutation; details: 2.5 μM FITC-labeled peptide
Procedure: as §4

SMILES | internalization (flow cytometry) [1] | green FITC signal (HEK-293 cells) | green FITC signal (H1299 cells; after 3 hours) | fluorescence intensity (H1299 cells; time zero) | green FITC signal (DKMG cells) | fluorescence intensity (DKMG cells) | internalization into MDA-435 cells [2] | binding to MCF-10A cells (MCF-10A cells) | binding (flow cytometry) [3] | binding to MDA-435 cells [2] | internalization activity to DKMG [4]
CC[C@H](C)[C@@H]1NC(=O)[C@H](Cc2ccc(O)cc2)NC(=O)[C@H](CO)NC(=O)CNC(=O)[C@@H]2CCCN2C(=O)[C@H](C(C)C)NC(=O)[C@H](Cc2cnc[nH]2)NC(=O)[C@@H](NC(=O)CCCNC(=S)Nc2ccc3c(c2)C(=O)OC32c3ccc(O)cc3Oc3cc(O)ccc32)CSSC[C@@H](C(N)=O)NC1=O [FITC-labeled P6] ({FITC-GABA}-CHVPGSYIC-NH2; disulfide 1-9) | internalized only into to EGFR+ve cells | low-intensive signal | strong signal | not detectable | strong signal | not detectable | pronounced internalization | – | – | – | –
CC(C)C[C@@H]1NC(=O)[C@H](C)NC(=O)[C@H](CO)NC(=O)[C@@H](NC(=O)CCCNC(=S)Nc2ccc3c(c2)C(=O)OC32c3ccc(O)cc3Oc3cc(O)ccc32)CSSC[C@@H](C(N)=O)NC(=O)[C@H](Cc2cnc[nH]2)NC(=O)[C@H](CO)NC(=O)[C@H](C)NC(=O)[C@H](Cc2c[nH]c3ccccc23)NC1=O [FITC-labeled P8] ({FITC-GABA}-CSALWASHC-NH2; disulfide 1-9) | internalized only into to EGFR+ve cells | – | – | – | – | – | – | noticeable binding | bind to H1299 and DKMG selectively but not to K562 cells | noticeable binding | –
CSCC[C@@H]1NC(=O)[C@H](C)NC(=O)[C@H](CC(N)=O)NC(=O)[C@H](C(C)C)NC(=O)[C@@H](NC(=O)CCCNC(=S)Nc2ccc3c(c2)C(=O)OC32c3ccc(O)cc3Oc3cc(O)ccc32)CSSC[C@@H](C(N)=O)NC(=O)[C@H](Cc2ccc(O)cc2)NC(=O)[C@H](CO)NC(=O)[C@H](CCC(N)=O)NC1=O [FITC-labeled P9] ({FITC-GABA}-CVNAMQSYC-NH2; disulfide 1-9) | internalized only into to EGFR+ve cells | – | – | – | significantly increased after 3 hours | pronounced emission | pronounced internalization | – | bind to H1299 and DKMG selectively but not to K562 cells | – | higher internalization activity
